From patent US12258355B2, “Probes for imaging huntingtin protein” (CHDI Foundation, Inc., priority 2014, dated 2025)

Experiments:
[1] = test system: recombinant tau and amyloid β1-42 (Aβ1-42) aggregates; details: affinity for tau aggregates versus Aβ1-42 aggregates; cited from earlier work
[2] = test system: zQ175 knock-in mice (WT, heterozygous, homozygous); experiment: In vivo PET imaging in zQ175 knock-in mouse model of Huntington's disease; details: for Average % SUV: i.v., 63-minute PET scan, Mean ± SD
Method: In Vivo Imaging with [^11C]-Compound 3 of Method 14 (5-[(5-[^11C-]-Methoxypyridin-2-yl)methoxy]-2-(pyridin-3-yl)-1,3-benzoxazole)) in a Knock-In Model of Huntington's Disease
^11C-labeled Compound 3 of Method 14 was evaluated for its ability to penetrate the central nervous system of mice following systemic administration, and its binding to the cerebellum, striatum, hippocampus, and cortex was quantitated. Three groups of animals were compared: wild-type, and mice that were heterozygous or homozygous for the zQ175 knock-in allele. (Menalled L. B. et al. Comprehensive behavioral and molecular characterization of a new knock-in mouse model of Huntington's disease: zQ175. PLoS One 2012, 7, e49838).
Forty-eight nine months old animals (16 WT, 16 heterozygous and 16 homozygous zQ175) were obtained from The Jackson Laboratory, USA. The animals were housed at the animal department of Karolinska University Hospital in a temperature (±21° C.) and humidity (±40%) controlled environment on a 12 h light/dark cycle (lights on 7:00 AM) with access to food and water ad libitum. Animals were allowed at least one week to habituate to the animal department before the start of the imaging sessions. All experiments were conducted during the light phase of the cycle.
Animals were anesthetized with inhalation of isoflurane (4-5% isoflurane in 100% oxygen). After induction of anesthesia, the isoflurane concentration was lowered to 1.5-2% (50/50 air/oxygen) and the animals were positioned in the scanner in a designated mouse bed. A cannula was inserted in the tail vein through which the radioligand was administered. A 63-minute dynamic PET scan was initiated immediately upon intravenous injection of the radioligand. Upon completion of the imaging sessions, each animal was returned to its cage.
Image and Statistical Analysis
The acquired list mode data, was reconstructed into 25 timeframes (63 min scan=4×10 s, 4×20 s, 4×60 s, 7×180 s, 6×360 s). The image reconstruction was made with a fully 3-dimensional maximum-likelihood expectation maximization algorithm (MLEM) with 20 iterations, without scatter and attenuation correction. The reconstructed dynamic PET images were co-registered to an inbuilt mouse MRI template available in PMOD, which also incorporates volumes of interest (VOI's) sets (PMOD Technologies Ltd., Zurich, Switzerland). With the help of these VOI sets, decay corrected time activity curves (TAC) were generated. The regional brain uptake values were expressed as percent standard uptake value (% SUV), which normalizes for injected radioactivity and body weight. In addition, the area under the curve (AUC) was calculated. The selected regions of interest (ROI) were: cortex, hippocampus, striatum and cerebellum.

Structure (SMILES)	ratio of Kd values [1]	binding of the radioligand relative to wild type ([2]; all four brain regions, mice homozygous for the zQ175 allele)	Average % SUV ([2]; cerebellum, WT mice (n = 7))	Average % SUV ([2]; cerebellum, het zQ175 mice (n = 7))	Average % SUV ([2]; cerebellum, hom zQ175 mice (n = 6))	Average % SUV ([2]; cortex, WT mice (n = 7))	Average % SUV ([2]; cortex, het zQ175 mice (n = 7))	Average % SUV ([2]; cortex, hom zQ175 mice (n = 6))	Average % SUV ([2]; hippocampus, WT mice (n = 7))	Average % SUV ([2]; hippocampus, het zQ175 mice (n = 7))	Average % SUV ([2]; hippocampus, hom zQ175 mice (n = 6))	Average % SUV ([2]; striatum, WT mice (n = 7))	Average % SUV ([2]; striatum, het zQ175 mice (n = 7))	Average % SUV ([2]; striatum, hom zQ175 mice (n = 6))
CN(C)c1ccc(/C=C/c2nc3ccc(I)cc3[nH]2)cc1 [SBIM-3, 4-[(E)-2-(6-iodo-1H-benzimidazol-2-yl)ethenyl]-N,N-dimethylaniline]	2.73													
[11CH3]Oc1ccc(COc2ccc3oc(-c4cccnc4)nc3c2)nc1 [^11C-labeled Compound 3 of Method 14, 5-[(5-[^11C-]-Methoxypyridin-2-yl)methoxy]-2-(pyridin-3-yl)-1,3-benzoxazole]		Increased binding	74.2 ± 3.0 % SUV	78.4 ± 5.9 % SUV	88.2 ± 5.0 % SUV	69.1 ± 3.1 % SUV	75.1 ± 4.3 % SUV	93.9 ± 8.0 % SUV	72.0 ± 3.6 % SUV	80.3 ± 5.5 % SUV	104.6 ± 7.9 % SUV	68.8 ± 2.7 % SUV	79.7 ± 5.8 % SUV	104.4 ± 9.1 % SUV
